In data set [1] the test system is human colon adenocarcinoma cell line (LoVo). Put plainly: in vitro cytotoxic activity, MTT assay, LoVo. It is filed as cell-based. The following applies: for IC50: Homo sapiens, read-out: IC50 ± S.D. The procedure: (§1) The evaluation of the biological activity for the compound of this invention was performed "in vitro" and "in vivo" following the protocols developed by the U.S. National Cancer Institute.
The evaluation of the "in vitro" cytotoxic activity was performed using a human colon adenocarcinoma cell line (Lovo) isolated from a metastatic nodule.

The next data set concerns human breast MX-1 tumor. Put plainly: in vivo human breast tumor xenograft MX-1 in mice, sc/iv. The settings on record: MX-1 sc/iv q7dx3. How it is done:
as §1
(§2) Further in vivo studies of biological activity of the compound of the invention were carried out using two human tumor xenografts, the human breast MX-1 tumor and the ovary tumor A2780 (Table II). […] The "tumor weight inhibition" can be evaluated as follows:
(§3) TWI%=100-[(average relative weight of the tumortreated /average
(§4) relative weight of the tumorcontrols)100]
(§5) By tumor regression, it is meant the reduction of the tumor mass measured 30 days after the end of the treatment compared with the tumor starting weight. Complete tumor regression means the disappearance of the tumor mass.
(§6) In vivo biological evaluation of the compound of the invention (I),
(§7) and A 2780) models in mice

For data set [2] the following is noted: man; cited from earlier work.
The conditions of data set [3]: rat; cited from earlier work.
For data set [4] the following is noted: W.H.O. grade; dose-limiting, phase I and II; cited from earlier work.
A further data set relates to P388 murine leukemia. Nature of the data set: in vivo P388 murine leukemia model, iv/iv. The settings on record: for survival time of the treated animals (in words): P388, compared with controls (untreated animals) or with analogues. How it is done:
as §1
Treatment was initiated approximately 24 hours after tumor transplantation and dosages of the product were administered iv according to preestablished protocols, usually at 3-day intervals. The studies were done over a 60 day period and the date of death for each animal was recorded. The % T/C was determined using the median survival time (MST) for each group according to the formula
T/C%=[(MSTtreated)/(MSTcontrols)]×100

For the next data set, the system named is ovary tumor A2780. Put plainly: in vivo human ovary tumor xenograft A2780 in mice, sc/iv. The settings on record: A 2780 sc/iv q4dx3; for Tumor regression: 30 days after end of treatment. The procedure:
as §1, §2, §3, §4, §5, §6, §7

For data set [5] the following is noted: limiting aspect; cited from earlier work.
For data set [6], the system named is cell histotypes developing resistance already against doxorubicin. The settings on record: doxorubicin-resistant cell histotypes, over-expression of glycoprotein P; cited from earlier work.
Data set [7] concerns human breast MX-1 tumor and the ovary tumor A2780. Put plainly: in vivo antitumor evaluation in human tumor xenografts MX-1 and A2780. Further details: species or system human tumor xenografts in mice. The settings on record: for complete tumor regressions (in words): contrary to CI-941. How it is done:
as §2, §3, §4, §5

Setting [8] is: 1 hour after treatment with the medicament.

In brackets after ≈: the same amount, converted by molar mass. Like-named read-outs stand apart in the source and are kept apart here.

`COc1cccc2c1C(=O)c1c(O)c3c(c(O)c1C2=O)C[C@@](O)(C(=O)CO)C[C@@H]3O[C@H]1C[C@H](N)[C@H](O)[C@H](C)O1` [doxorubicin]: in [1] (1 h), the IC50 turned out to be 0.7 ± 0.49 µg/mL (≈ 1.29 µM).
On to `O=C1c2c(O)cccc2-c2nn(CCNCCO)c3ccc(NCCNCCO)c1c23` [CI-941], for which the TWI % is on record as 83% in the data set with human breast MX-1 tumor (9 mg/kg); 93% in the data set on human breast MX-1 tumor (13.5 mg/kg); 97% in the data set on human breast MX-1 tumor (17.5 mg/kg); 87% in the data set with ovary tumor A2780 (8 mg/kg); 97% in the data set on ovary tumor A2780 (10.4 mg/kg); 100% with ovary tumor A2780 (13.5 mg/kg). In addition, the Tox. in the data set on human breast MX-1 tumor (9 mg/kg) is 0/7; with human breast MX-1 tumor (13.5 mg/kg), 0/40; in the data set on human breast MX-1 tumor (17.5 mg/kg) it was 9/33; with P388 murine leukemia (P388 iv/iv + 1,4,7, 6 mg/kg), 0/8; in the data set on P388 murine leukemia (P388 iv/iv + 1,4,7, 9 mg/kg), 0/8; with P388 murine leukemia (P388 iv/iv + 1,4,7, 13.5 mg/kg), 0/8. Besides, the Tox. with ovary tumor A2780 (8 mg/kg) is 0/7; with ovary tumor A2780 (10.4 mg/kg), 0/7; in the data set on ovary tumor A2780 (13.5 mg/kg), 5/7. For the same compound, the IC50 in [1] (1 h) worked out at 0.039 ± 0.035 µg/mL (≈ 0.0917 µM). In addition, the cardiotoxicity entry in data set [2] was “irreversible cardiotoxicity”. Besides, the nephrotoxicity entry in data set [3] is “marked nephrotoxicity”. Besides, the leukopenia entry in data set [4] is “severe leukopenia (W.H.O. grade 3 and 4)”. For the same compound, the neutropenia result in data set [4] is given as “neutropenia (W.H.O. grade 4)”. Further, the T/C % in the data set on P388 murine leukemia (P388 iv/iv + 1,4,7, 6 mg/kg) stood at 133%; in the data set on P388 murine leukemia (P388 iv/iv + 1,4,7, 9 mg/kg), 144%; in the data set with P388 murine leukemia (P388 iv/iv + 1,4,7, 13.5 mg/kg) it was 133%. Also, the Tumor regression with ovary tumor A2780 (8 mg/kg) is on record as 0/7; in the data set on ovary tumor A2780 (10.4 mg/kg), 0/7; in the data set with ovary tumor A2780 (13.5 mg/kg), 1/7.
Consider `O=C1c2c(O)ccc(O)c2C(=O)c2c(NCCNCCO)ccc(NCCNCCO)c21` [mitoxantrone, 5,8-dihydroxy-1,4-bis{[2-(2-hydroxyethylamino)ethyly]amino]anthracene-9,10-dione], for which, in the data set on human breast MX-1 tumor (4.5 mg/kg), the TWI % came to 74%. Also, in data set [1] (setting [8]), the IC50 came out at 0.026 ± 0.017 µg/mL (≈ 0.0585 µM). Also, in [5], the “toxicity (cardiotoxicity)” value is given as “cardiotoxicity” and the “toxicity (myelodepression)” value was “mielodepressive toxic effect”. In the data set on P388 murine leukemia (P388 iv/iv + 1,4,7, 3 mg/kg), the T/C % is 195% and the Tox. is listed as 16/284. For the same compound, the cross-resistance result in data set [6] is on record as “cross-resistance”.
With `CNCCNc1ccc2c3c(nn2CCNCCO)-c2cnccc2C(=O)c13` [compound (I)], the TWI % worked out at 78% in the data set on human breast MX-1 tumor (8.9 mg/kg), 96% with human breast MX-1 tumor (17.5 mg/kg), 99% with ovary tumor A2780 (7.5 mg/kg) and 100% in the data set on ovary tumor A2780 (9.7 mg/kg). In addition, the Tox. is 0/5 in the data set on human breast MX-1 tumor (8.9 mg/kg); 0/5 with human breast MX-1 tumor (17.5 mg/kg); 0/8 with P388 murine leukemia (mouse, in vivo, iv, 7.5 mg/kg); 0/7 in the data set with ovary tumor A2780 (7.5 mg/kg); 0/7 in the data set on ovary tumor A2780 (9.7 mg/kg). In addition, in data set [1] (setting [8]), the IC50 was determined as 0.54 ± 0.17 µg/mL (≈ 1.42 µM). For the same compound, the “in vitro cytotoxic activity (in words)” value in data set [1] (MTT assay, compared with doxorubicin) is reported as “activity comparable to doxorubicin”. Moreover, the entries for the “survival time of the treated animals (in words)” value with P388 murine leukemia (listed as 2-[2-[(2-hydroxyethyl)amino]ethyl]-5-[[2-(methylamino)ethyl]amino]indazolo[4,3-g) and with P388 murine leukemia (listed as compound of the invention) were “higher increase in the average survival time of the treated animals (expressed as % T/C) than that obtained with its analogues” and “active in increasing the survival time of the treated animals”, respectively. In addition, the T/C % in the data set on P388 murine leukemia (P388 iv/iv + 1,4,7, 7.5 mg/kg) was determined as 167%. Further, the “tolerability (in words)” value in the data set on P388 murine leukemia (compared with mitoxantrone, Table II) is given as “better tolerated than mitoxantrone”. The Tumor regression is 4/7 with ovary tumor A2780 (7.5 mg/kg) and 6/7 with ovary tumor A2780 (9.7 mg/kg). In addition, the “tumor weight inhibition (in words)” value in [7] (MX-1 and A2780 xenografts, compared with CI-941) is recorded as “activity equal if not higher than CI-941”. For the same compound, the “toxic effects (in words)” value in data set [7] (tested doses) is recorded as “absence of toxic effects”. The “complete tumor regressions (in words)” value in [7] (tested doses, listed as 2-[2-[(2-hydroxyethyl)amino]ethyl]-5-[[2-(methylamino)ethyl]amino]indazolo[4,3-g) was “complete regression of the tumor in a statistically significant number of animals”; in data set [7] (tested doses, listed as compound of the invention), “a significant number of complete tumor regressions”.
On to `O=C1c2ccccc2C(=O)c2c(NCCNCCO)ccc(NCCNCCO)c21` [ametantrone, 4-bis{[2-(2-hydroxyethylamino)ethyl]amino]anthracene-9,10-dione], for which, in [5], the “toxicity (myelodepression)” value is “mielodepressive toxic effect”. In addition, the cross-resistance entry in data set [6] is “cross-resistance”.

These data come from patent US6034092A, “2-[2-[(2-hydroxyethyl)amino]ethy [ l]-5-[[2-methylamino)ethyl]amino]indazolo4,3-gh]isoquinolin-6(2H)-one as antitumor agent” (priority 1995, dated 2000).
